Source: US9663513B2, “Pyrimidine PDE10 inhibitors” (Merck Sharp & Dohme Corp., priority 2012, dated 2017)

target: human PDE10A2 (Homo sapiens (Human), UniProt Q9Y233); assay: PDE10 fluorescence polarization (IMAP FP) inhibition assay; type: biochemical; details: human PDE10A2 from transfected AD293 cells; FAM-labeled cAMP 50 nM; apparent inhibition constant; read-out: PDE10A Ki
Protocol: The activity of the compounds in accordance with the present invention as PDE10 inhibitors may be readily determined without undue experimentation using a fluorescence polarization (FP) methodology that is well known in the art (Huang, W., et al., J. Biomol Screen, 2002, 7: 215).
In a typical experiment the PDE10 inhibitory activity of the compounds of the present invention was determined in accordance with the following experimental method. PDE10A2 was amplified from human fetal brain cDNA (Clontech, Mountain View, Calif.) using a forward primer corresponding to nucleotides 56-77 of human PDE10A2 (Accession No. AF127480, Genbank Identifier 4894716), containing a Kozak consensus sequence, and a reverse primer corresponding to nucleotides 2406-2413 of human PDE10A2 (Accession No. AF127480, Genbank Identifier 4894716). Amplification with Easy-A polymerase (Stratagene, La Jolla, Calif.) was 95° C. for 2 minutes followed by thirty three cycles of 95° C. for 40 seconds, 55° C. for 30 seconds, and 72° C. for 2 minutes 48 seconds. Final extension was 72° C. for 7 minutes. The PCR product was TA cloned into pcDNA3.2-TOPO (Invitrogen, Carlsbad, Calif.) according to standard protocol. AD293 cells with 70-80% confluency were transiently transfected with human PDE10A2/pcDNA3.2-TOPO using Lipofectamine 2000 according to manufacturer specifications (Invitrogen, Carlsbad, Calif.). Cells were harvested 48 hours post-transfection and lysed by sonication (setting 3, 10×5 sec pulses) in a buffer containing 20 mM HEPES, 1 mM EDTA and protease inhibitor cocktail (Roche). Lysate was collected by centrifugation at 75,000×g for 20 minutes. Supernatant containing the cytoplasmic fraction was used for evaluation of PDE10A2 activity. The fluorescence polarization assay for cyclic nucleotide phosphodiesterases was performed using an IMAP® FP kit supplied by Molecular Devices, Sunnyvale, Calif. (product # R8139). IMAP® technology has been applied previously to phosphodiesterase assays (Huang, W., et al., J. Biomol Screen, 2002, 7: 215). Assays were performed at room temperature in 384-well microtiter plates with an incubation volume of 20.2 μL. Solutions of test compounds were prepared in DMSO and serially diluted with DMSO to yield 8 μL of each of 10 solutions differing by 3-fold in concentration, at 32 serial dilutions per plate. […] 0% of inhibition is determined by using DMSO (1% final concentrations).
A Labcyte Echo 555 (Labcyte, Sunnyvale, Calif.) is used to dispense 200 nL from each well of the titration plate to the 384 well assay plate. A solution of enzyme (1/1600 dilution from aliquots; sufficient to produce 20% substrate conversion) and a separate solution of FAM-labeled cAMP PDE from Molecular Devices (product # R7506), at a final concentration of 50 nM are made in the assay buffer (10 mM Tris HCl, pH 7.2, 10 mM MgCl2, 0.05% NaN3 0.01% Tween-20, and 1 mM DTT). The enzyme and the substrate are then added to the assay plates in two consecutive additions of 10 μL, and then shaken to mix. The reaction is allowed to proceed at room temperature for 30 minutes. […] The enzymatic reaction is stopped by addition of 60 μL of the binding solution to each well of the assay plates and the plates are sealed and shaken for 10 seconds. The plate was incubated at room temperature for at least one hour prior to determining the fluorescence polarization (FP). The parallel and perpendicular fluorescence of each well of the plate was measured using a Perkin Elmer EnVision™ plate reader (Waltham, Mass.).
Fluorescence polarization (mP) was calculated from the parallel (S) and perpendicular (P) fluorescence of each sample well and the analogous values for the median control well, containing only substrate (So and Po), using the following equation: Polarization(mP)=1000*(S/So−P/Po)/(S/So+P/Po).
Dose-inhibition profiles for each compound were characterized by fitting the mP data to a four-parameter equation given below.

Chain of human PDE10A2 (Q9Y233 267-1055): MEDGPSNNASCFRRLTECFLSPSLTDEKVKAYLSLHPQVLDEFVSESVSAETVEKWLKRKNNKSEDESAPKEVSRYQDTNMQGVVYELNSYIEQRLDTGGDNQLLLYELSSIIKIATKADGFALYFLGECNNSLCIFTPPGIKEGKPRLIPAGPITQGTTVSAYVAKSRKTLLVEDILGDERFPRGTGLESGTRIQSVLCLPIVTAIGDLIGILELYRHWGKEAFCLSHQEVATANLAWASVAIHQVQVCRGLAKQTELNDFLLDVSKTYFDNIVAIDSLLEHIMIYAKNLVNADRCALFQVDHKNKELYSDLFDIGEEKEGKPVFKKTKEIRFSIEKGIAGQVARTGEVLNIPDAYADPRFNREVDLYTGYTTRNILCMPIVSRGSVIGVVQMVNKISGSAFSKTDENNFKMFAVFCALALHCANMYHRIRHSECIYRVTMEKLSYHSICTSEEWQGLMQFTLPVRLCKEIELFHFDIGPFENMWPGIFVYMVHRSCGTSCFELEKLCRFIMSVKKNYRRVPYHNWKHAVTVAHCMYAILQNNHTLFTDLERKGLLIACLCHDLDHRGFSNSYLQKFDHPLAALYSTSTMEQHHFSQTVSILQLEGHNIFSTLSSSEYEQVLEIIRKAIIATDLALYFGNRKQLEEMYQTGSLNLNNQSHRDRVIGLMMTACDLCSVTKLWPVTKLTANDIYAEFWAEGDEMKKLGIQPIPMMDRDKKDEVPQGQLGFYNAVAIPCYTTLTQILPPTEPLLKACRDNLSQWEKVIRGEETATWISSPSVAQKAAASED

| Ki | Compound |
| --- | --- |
| 1.64 nM | COc1ccc([C@H]2C[C@@H]2COc2nc(C)ncc2-c2cnc(O)nc2)nc1 [Example 70, 4′-(((1S,2S)-2-(5-methoxypyridin-2-yl)cyclopropyl)methoxy)-2′-methyl-5,5′-bipyrimidin-2-ol] |
| 4.78 nM | COc1ccc([C@H]2C[C@@H]2COc2nc(C)ncc2-c2ccc(OC(CO)CO)nc2)nc1 [Example 71, 2-(5-(4-(((1S,2S)-2-(5-methoxypyridin-2-yl)cyclopropyl)methoxy)-2-methylpyrimidin-5-yl)pyridin-2-yloxy)propane-1,3-diol] |
| 0.5 nM | COc1ccc([C@H]2C[C@@H]2COc2nc(C)ncc2-c2ccc(OCC3CC3)nc2)nc1 [Example 72, 5-(6-(cyclopropylmethoxy)pyridin-3-yl)-4-(((1S,2S)-2-(5-methoxypyridin-2-yl)cyclopropyl)methoxy)-2-methylpyrimidine] |
| 1.13 nM | COc1ccc([C@H]2C[C@@H]2COc2nc(C)ncc2-c2cnsc2)nc1 [Example 73, 4-(4-(((1S,2S)-2-(5-methoxypyridin-2-yl)cyclopropyl)methoxy)-2-methylpyrimidin-5-yl)isothiazole] |
| 0.18 nM | COc1ccc([C@H]2C[C@@H]2COc2nc(C)ncc2-c2ccnc(OC(C)C)c2)nc1 [Example 74, 5-(2-isopropoxypyridin-4-yl)-4-(((1S,2S)-2-(5-methoxypyridin-2-yl)cyclopropyl)methoxy)-2-methylpyrimidine] |
| 0.14 nM | CCOc1cc(-c2cnc(C)nc2OC[C@H]2C[C@@H]2c2ccc(OC)cn2)ccn1 [Example 75, 5-(2-ethoxypyridin-4-yl)-4-(((1S,2S)-2-(5-methoxypyridin-2-yl)cyclopropyl)methoxy)-2-methylpyrimidine] |
| 0.48 nM | COc1ccc([C@H]2C[C@@H]2COc2nc(C)ncc2C2=CC(=O)CC2)nc1 [Example 76, 3-(4-(((1S,2S)-2-(5-methoxypyridin-2-yl)cyclopropyl)methoxy)-2-methylpyrimidin-5-yl)cyclopent-2-enone] |
| 6.28 nM | COc1ccc([C@H]2C[C@@H]2COc2nc(C)ncc2C2=CC(=O)CC2)nc1 [Example 77, 3-(4-(((1S,2S)-2-(5-methoxypyridin-2-yl)cyclopropyl)methoxy)-2-methylpyrimidin-5-yl)cyclopent-2-enone] |
| 8.35 nM | COc1ccc([C@H]2C[C@@H]2COc2nc(C)ncc2C2CCC(=O)C2)nc1 (some centres unmarked) [Example 78] |
| 5.6 nM | COc1ccc([C@H]2C[C@@H]2COc2nc(C)ncc2[C@H]2CC[C@@H](O)C2)nc1 [Example 79, (1R,3S)-3-(4-(((1S,2S)-2-(5-methoxypyridin-2-yl)cyclopropyl)methoxy)-2-methylpyrimidin-5-yl)cyclopentanol] |
| 5.48 nM | COc1ccc([C@H]2C[C@@H]2COc2nc(C)ncc2[C@@H]2CC[C@@H](O)C2)nc1 [Example 80, (1R,3R)-3-(4-(((1S,2S)-2-(5-methoxypyridin-2-yl)cyclopropyl)methoxy)-2-methylpyrimidin-5-yl)cyclopentanol] |
| 4.97 nM | COc1ccc([C@H]2C[C@@H]2COc2nc(C)ncc2-c2ccc(Br)cc2)nc1 [Example 81, 5-(4-bromophenyl)-4-(((1S,2S)-2-(5-methoxypyridin-2-yl)cyclopropyl)methoxy)-2-methylpyrimidine] |
| 0.2 nM | COc1ccc([C@H]2C[C@@H]2COc2nc(C)ncc2-c2cn(C)nc2C(F)(F)F)nc1 [Example 82, 4-(((1S,2S)-2-(5-methoxypyridin-2-yl)cyclopropyl)methoxy)-2-methyl-5-(1-methyl-3-(trifluoromethyl)-1H-pyrazol-4-yl)pyrimidine] |
| 0.86 nM | CCc1ccc(-c2cnc(C)nc2OC[C@H]2C[C@@H]2c2ccc(OC)cn2)cn1 [Example 85, 5-(6-ethylpyridin-3-yl)-4-(((1S,2S)-2-(5-methoxypyridin-2-yl)cyclopropyl)methoxy)-2-methylpyrimidine] |
| 11.6 nM | COc1ccc([C@H]2C[C@@H]2COc2nc(C)ncc2-c2ccc(Br)cn2)nc1 [Example 86, 5-(5-bromopyridin-2-yl)-4-(((1S,2S)-2-(5-methoxypyridin-2-yl)cyclopropyl)methoxy)-2-methylpyrimidine] |
| 0.44 nM | COc1ccc([C@H]2C[C@@H]2COc2nc(C)ncc2-c2cc(C(F)(F)F)cnc2Cl)nc1 [Example 87, 5-(2-chloro-5-(trifluoromethyl)pyridin-3-yl)-4-(((1S,2S)-2-(5-methoxypyridin-2-yl)cyclopropyl)methoxy)-2-methylpyrimidine] |
| 0.99 nM | COc1ccc([C@H]2C[C@@H]2COc2nc(C)ncc2-c2cc(Cl)ncc2C(F)(F)F)nc1 [Example 88, 5-(2-chloro-5-(trifluoromethyl)pyridin-4-yl)-4-(((1S,2S)-2-(5-methoxypyridin-2-yl)cyclopropyl)methoxy)-2-methylpyrimidine] |
| 0.06 nM | COc1ccc([C@H]2C[C@@H]2COc2nc(C)ncc2-c2ccc(C3(O)CCCC3)nc2)nc1 [Example 89, 1-(5-(4-(((1S,2S)-2-(5-methoxypyridin-2-yl)cyclopropyl)methoxy)-2-methylpyrimidin-5-yl)pyridin-2-yl)cyclopentanol] |
| 2.13 nM | COc1ccc([C@H]2C[C@@H]2COc2nc(C)ncc2-c2ccc3[nH]ccc3c2)nc1 [Example 90, 5-(4-(((1S,2S)-2-(5-methoxypyridin-2-yl)cyclopropyl)methoxy)-2-methylpyrimidin-5-yl)-1H-indole] |
| 0.16 nM | COc1ccc([C@H]2C[C@@H]2COc2nc(C)ncc2-c2ccc(C3(O)COC3)nc2)nc1 [Example 91] |
| 0.12 nM | COc1ccc([C@H]2C[C@@H]2COc2nc(C)ncc2-c2ccc(C3(O)CCC3)nc2)nc1 [Example 92, 1-(5-(4-(((1S,2S)-2-(5-methoxypyridin-2-yl)cyclopropyl)methoxy)-2-methylpyrimidin-5-yl)pyridin-2-yl)cyclobutano1] |
| 0.15 nM | COc1ccc([C@H]2C[C@@H]2COc2nc(C)ncc2-c2ccc(-c3ncno3)cc2)nc1 [Example 93, 5-(4-(4-(((1S,2S)-2-(5-methoxypyridin-2-yl)cyclopropyl)methoxy)-2-methylpyrimidin-5-yl)phenyl)-1,2,4-oxadiazole] |
| 1.17 nM | COc1ccc([C@H]2C[C@@H]2COc2nc(C)ncc2-c2ccc(-c3nc(CCl)no3)cc2)nc1 [Example 94, 3-(chloromethyl)-5-(4-(4-(((1S,2S)-2-(5-methoxypyridin-2-yl)cyclopropyl)methoxy)-2-methylpyrimidin-5-yl)phenyl)-1,2,4-oxadiazole] |
| 0.93 nM | COc1ccc([C@H]2C[C@@H]2COc2nc(C)ncc2-c2ccc(-c3nc(CO)no3)cc2)nc1 [Example 95, (5-(4-(4-(((1S,2S)-2-(5-methoxypyridin-2-yl)cyclopropyl)methoxy)-2-methylpyrimidin-5-yl)phenyl)-1,2,4-oxadiazol-3-yl)methanol] |
| 1.26 nM | COc1ccc([C@H]2C[C@@H]2COc2nc(C)ncc2-c2cnc(C(=O)O)cn2)nc1 [Example 96, 5-(4-(((1S,2S)-2-(5-methoxypyridin-2-yl)cyclopropyl)methoxy)-2-methylpyrimidin-5-yl)pyrazine-2-carboxylic acid] |
| 9.74 nM | COC(=O)c1cnc(-c2cnc(C)nc2OC[C@H]2C[C@@H]2c2ccc(OC)cn2)cn1 [Example 97, methyl 5-(4-(((1S,2S)-2-(5-methoxypyridin-2-yl)cyclopropyl)methoxy)-2-methylpyrimidin-5-yl)pyrazine-2-carboxylate] |
